Results taken from PMC3705364, “Biochemical and Electrophysiological Characterization of Two Sea Anemone Type 1 Potassium Toxins from a Geographically Distant Population of Bunodosoma caissarum” (Marine Drugs, 2013).
Where a SMILES comes first, the peptide text is derived from it. Bridges are numbered along the chain shown (N, C = ends).

Molecular target: T1, rKV1.2 (Rattus norvegicus, UniProt P63142)
T1 construct: expressed in transfected cells; host or cells: Xenopus laevis oocytes injected with cRNA
Test: Two-electrode voltage-clamp, X. laevis oocytes expressing rKV1.2
Format: cell-based
Protocol: Stage V–VI of X. laevis oocytes were harvested by partial ovariectomy under anesthesia (3-aminobenzoic acid ethyl ester methanesulfonate salt, 0.5 g/L from Sigma-Aldrich Co., Saint Louis, MO, USA). The oocytes were defolliculated for 2 h by treatment with 2 mg/mL collagenase (Sigma-Aldrich Co., Saint Louis, MO, USA) in Ca^2+ free ND96 solution (in mM: 96 NaCl; 2 KCl; 1 MgCl2; 5 HEPES adjusted pH 7.4). For the expression of KV channels (KV1.1–KV1.6, KV2.1, KV3.1, KV4.2, KV4.3, hERG and the insect channel Shaker IR), the linearized plasmids were transcribed using the T7 or SP6 mMessage-mMachine transcription kit (Ambion, Austin, TX, USA). Oocytes were injected with 50 nL of cRNA at a concentration of 1 ng/nL using a microinjector (Drummond Scientific, Broomall, PA, USA). The oocytes were maintained in a ND96 solution (in mM: 96 NaCl, 2 KCl, 1.8 CaCl2, 2 MgCl2 and 5 HEPES; adjusted pH 7.4), supplemented with 50 µg/mL gentamicin sulfate.
Two-electrode voltage-clamp recordings were performed at room temperature (18–22 °C) using a Geneclamp 500 amplifier (Molecular Devices, Sunnyvale, CA, USA) controlled by a pClamp data acquisition system (Axon Instruments, Union City, CA, USA). Whole-cell currents from oocytes were recorded from 1 to 3 days after injection. Bath solution was the same ND96 solution described above. Voltage and current electrodes were filled with 3 M KCl. Resistances of both electrodes were kept between 0.8 and 1.0 ΩM. The elicited currents were filtered at 500 Hz using a four-pole lowpass Bessel filter. Leak subtraction was performed using a −P/4 protocol. KV1.1–KV1.6 and Shaker IR currents were evoked by 500 ms depolarizations to 0 mV, followed by a 500 ms pulse to −50 mV, from a holding potential of −90 mV. Current traces of hERG channels were elicited by applying a +40 mV prepulse for 2 s, followed by a step to −120 mV for 2 s. KV3.1, KV 4.2 and KV4.3 currents were elicited by 500 ms pulses to +20 mV from a holding potential of −90 mV. To assess the concentration-response relationships, data were fitted with the Hill equation: y = 100/[1 + (EC50/[toxin])h] (1) where y is the amplitude of the toxin-induced effect, EC50 is the toxin concentration at half maximal efficacy, [toxin] is the toxin concentration and h is the Hill coefficient. In order to investigate the current-voltage relationship, current traces were evoked by 10 mV depolarization steps from a holding potential of −90 mV. […]
Comparison of two sample means was made using a paired Student’s t test (p < 0.05). […] All data were analyzed using Clampfit 10.3 (Molecular Devices, Sunnyvale, CA, USA) and Origin 7.5 software (Origin Lab., Northampton, MA, USA).

T1 sequence (P63142 whole entry): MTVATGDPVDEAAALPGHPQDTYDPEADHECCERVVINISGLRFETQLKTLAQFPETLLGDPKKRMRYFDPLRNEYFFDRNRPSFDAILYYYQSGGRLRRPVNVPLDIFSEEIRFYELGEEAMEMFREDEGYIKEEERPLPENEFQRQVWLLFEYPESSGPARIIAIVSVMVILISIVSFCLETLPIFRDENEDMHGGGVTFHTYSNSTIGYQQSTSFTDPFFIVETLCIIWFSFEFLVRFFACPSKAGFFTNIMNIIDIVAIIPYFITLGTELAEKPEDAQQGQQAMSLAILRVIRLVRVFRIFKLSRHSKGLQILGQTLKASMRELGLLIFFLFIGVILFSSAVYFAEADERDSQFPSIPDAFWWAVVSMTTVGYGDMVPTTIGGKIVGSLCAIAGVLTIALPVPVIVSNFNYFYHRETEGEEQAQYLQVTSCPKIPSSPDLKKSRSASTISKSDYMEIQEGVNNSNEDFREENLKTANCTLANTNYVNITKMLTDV

CC(C)C[C@@H]1NC(=O)[C@H](CCCCN)NC(=O)[C@H](C)NC(=O)[C@H](Cc2c[nH]cn2)NC(=O)[C@H](CCC(N)=O)NC(=O)[C@@H]2CSSC[C@@H]3NC(=O)[C@H](CC(N)=O)NC(=O)[C@H](C)NC(=O)[C@H](CCCNC(=N)N)NC(=O)[C@H](Cc4ccc(O)cc4)NC(=O)[C@H](CCCCN)NC(=O)[C@H](CCC(N)=O)NC(=O)[C@H](CO)NC(=O)[C@H](CC(N)=O)NC(=O)[C@H](CCCCN)NC(=O)[C@H](CSSC[C@H](NC(=O)[C@H]([C@@H](C)O)NC(=O)[C@H](CCCCN)NC(=O)[C@H](C)NC3=O)C(=O)NCC(=O)N3CCC[C@H]3C(=O)N[C@H](C(=O)O)CSSC[C@H](NC(=O)[C@H](C)N)C(=O)N[C@@H](CCCCN)C(=O)N[C@@H](CC(=O)O)C(=O)NCC(=O)N[C@@H](Cc3ccccc3)C(=O)N3CCC[C@H]3C(=O)N[C@@H]([C@@H](C)O)C(=O)N[C@@H](C)C(=O)N[C@@H]([C@@H](C)O)C(=O)N2)NC(=O)[C@H](CC(N)=O)NC(=O)CNC(=O)[C@H](C(C)C)NC1=O [BcsTx2] (H-ACKDGFPTATCQHAKLVGNCKNSQKYRANCAKTCGPC-OH; disulfide 2-37, 11-30, 20-34; C-terminus assumed)
inhibition at 3 µM (3 µM, n ≥ 3, read-out: inhibition of rKV1.2 current): 100%
IC50 (TEVC, 18–22 °C, ND96 pH 7.4, 500 ms depolarizations to 0 mV from −90 mV, Hill fit, mean ± standard error, n ≥ 3): 0.0804 ± 0.00144 µM
